As a reminder, the IC50 is the midpoint of a concentration-inhibition curve. Higher therefore signals weaker potency in that assay.

Molecules are shown by their SMILES.

For this assay, the target named is T1, KRAS^G12C::SOS1 (Homo sapiens, UniProt Q07889).
T1 sequence (Q07889 1-1333): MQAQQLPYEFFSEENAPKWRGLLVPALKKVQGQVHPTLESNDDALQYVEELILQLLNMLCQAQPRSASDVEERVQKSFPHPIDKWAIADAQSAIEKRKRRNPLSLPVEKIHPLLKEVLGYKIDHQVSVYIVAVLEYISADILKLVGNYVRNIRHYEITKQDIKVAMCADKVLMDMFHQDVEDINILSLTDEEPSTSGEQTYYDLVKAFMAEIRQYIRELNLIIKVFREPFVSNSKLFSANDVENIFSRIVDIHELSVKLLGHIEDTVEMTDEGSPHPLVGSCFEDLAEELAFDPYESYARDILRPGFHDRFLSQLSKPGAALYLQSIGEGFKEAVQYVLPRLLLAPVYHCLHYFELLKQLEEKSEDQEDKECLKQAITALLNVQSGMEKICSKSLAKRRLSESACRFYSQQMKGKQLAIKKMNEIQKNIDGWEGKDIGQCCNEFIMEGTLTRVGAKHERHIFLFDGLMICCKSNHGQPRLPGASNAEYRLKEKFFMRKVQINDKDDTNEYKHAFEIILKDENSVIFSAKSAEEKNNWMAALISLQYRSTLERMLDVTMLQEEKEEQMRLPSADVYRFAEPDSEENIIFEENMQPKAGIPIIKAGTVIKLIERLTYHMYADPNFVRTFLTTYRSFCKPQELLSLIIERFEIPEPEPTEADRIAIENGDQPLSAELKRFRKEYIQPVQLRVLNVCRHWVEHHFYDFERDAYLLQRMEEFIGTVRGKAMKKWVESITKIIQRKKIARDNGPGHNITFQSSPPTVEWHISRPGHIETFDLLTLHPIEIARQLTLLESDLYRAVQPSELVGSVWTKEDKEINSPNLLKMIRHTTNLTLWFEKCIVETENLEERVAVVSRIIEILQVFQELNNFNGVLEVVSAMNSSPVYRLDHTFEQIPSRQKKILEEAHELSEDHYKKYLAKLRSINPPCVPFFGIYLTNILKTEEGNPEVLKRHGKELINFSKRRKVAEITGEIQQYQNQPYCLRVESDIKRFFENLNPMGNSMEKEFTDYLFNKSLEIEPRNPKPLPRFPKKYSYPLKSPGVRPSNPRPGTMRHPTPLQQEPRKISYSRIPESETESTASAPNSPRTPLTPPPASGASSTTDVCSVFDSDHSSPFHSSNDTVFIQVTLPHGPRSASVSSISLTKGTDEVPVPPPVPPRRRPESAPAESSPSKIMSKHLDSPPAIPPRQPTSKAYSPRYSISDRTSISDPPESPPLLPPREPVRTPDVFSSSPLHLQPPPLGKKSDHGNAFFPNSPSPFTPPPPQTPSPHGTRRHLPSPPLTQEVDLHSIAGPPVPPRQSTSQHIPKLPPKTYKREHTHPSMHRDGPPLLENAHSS
Description: KRAS G12C::SOS1 protein-protein interaction (PPI) inhibition assay (HTRF binding kit). (Time-resolved FRET reads energy transfer from a long-lived donor to a nearby acceptor.)
Description: Protein-protein interaction between SOS1 and KRAS^G12C was detected using KRAS G12C/SOS1 binding kit from CISBIO (64KRASG12PEH, CISBIO, FRANCE) according to the manufacturer's assay method. Briefly, the maximum concentration of an inhibitor sample was set to be 3 µM, and the inhibitor sample was diluted 7 times by 1/3, and samples having a total of 8 concentrations were prepared. In HTRF (Homogeneous Time-Resolved Fluorescence) exclusive 96-well low-volume white plate (66PL96005, CISBIO, FRANCE), 2 µL of an inhibitor sample prepared for each concentration, 5 µL of a mixed solution of Tag1-labeled KRAS^G12C protein and GTP diluted with the dilution solution provided by the manufacturer, and 5 µL of Tag2 labeled SOS1 protein were mixed, and added with 8 µL of a diluted solution where anti-Tag1 KRAS^G12C XL665 (HTRF acceptor) labeled antibody and anti-Tag2 SOS1 Terbium cryptate (HTRF donor) labeled antibody were mixed in an equal ratio and incubated at room temperature for 2 h.
For the compound `COc1ccc(F)c(-n2nc(C(=O)N[C@H](C)c3cc(N)cc(C(F)(F)F)c3)ccc2=O)c1` [Example 183, N-[(1R)-1-[3-amino-5-(trifluoromethyl)phenyl]ethyl]-1-(2-fluoro-5-methoxy-phenyl)-6-oxo-pyridazine-3-carboxamide], the IC50 was below 1000 nM.
Compound `C[C@@H](NC(=O)c1ccc(=O)n(-c2cccc(-c3cccc(=O)n3C)c2)n1)c1cc(N)cc(C(F)(F)F)c1` [Example 351, N-[(1R)-1-[3-amino-5-(trifluoromethyl)phenyl]ethyl]-1-[3-(1-methyl-6-oxo-2-pyridyl)phenyl]-6-oxo-pyridazine-3-carboxamide] gave an IC50 below 1000 nM.
On to `CCOc1ccc(-n2nc(C(=O)N[C@H](C)c3cc(N)cc(C(F)(F)F)c3)ccc2=O)cc1` [Example 189, (R)-N-(1-(3-amino-5-(trifluoromethyl)phenyl)ethyl)-1-(4-ethoxyphenyl)-6-oxo-1,6-dihydropyridazine-3-carboxamide], for which the IC50 is below 1000 nM.
`CNCc1cc2c(cc1-c1ccc([C@@H](C)NC(=O)c3ccc(=O)n(-c4ccccc4F)c3)s1)CCC2` [Example 273, 1-(2-fluorophenyl)-N-[(1R)-1-[5-[6-(methylaminomethyl)indan-5-yl]-2-thienyl]ethyl]-6-oxo-pyridine-3-carboxamide] yielded an IC50 below 1000 nM.
`C[C@@H](NC(=O)c1ccc(=O)n(-c2cccc(C(=O)OC(C)(C)C)c2)n1)c1cc(N)cc(C(F)(F)F)c1` [Example 248, Tert-butyl 3-[3-[[(1R)-1-[3-amino-5-(trifluoromethyl)phenyl]ethyl]carbamoyl]-6-oxo-pyridazin-1-yl]benzoate] displayed an IC50 below 1000 nM.
Turning to `C[C@@H](NC(=O)c1ccc(=O)n(CCO)n1)c1cc(N)cc(C(F)(F)F)c1` [Example 223, N-[(1R)-1-[3-amino-5-(trifluoromethyl)phenyl]ethyl]-1-(2-hydroxyethyl)-6-oxo-pyridazine-3-carboxamide], the IC50 was below 1000 nM.
The compound `C[C@@H](NC(=O)c1ccc(=O)n(-c2cnn(C)c2Cl)n1)c1cc(N)cc(C(F)(F)F)c1` [Example 209, N-[(1R)-1-[3-amino-5-(trifluoromethyl)phenyl]ethyl]-1-(5-chloro-1-methyl-pyrazol-4-yl)-6-oxo-pyridazine-3-carboxamide] yielded a 50% inhibitory concentration (IC50) below 1000 nM.
The result for `C[C@@H](NC(=O)c1ccc(=O)n(-c2cccc(CO)c2)n1)c1cc(N)cc(C(F)(F)F)c1` [Example 169, N-[(1R)-1-[3-amino-5-(trifluoromethyl)phenyl]ethyl]-1-[3-(hydroxymethyl)phenyl]-6-oxo-pyridazine-3-carboxamide] reads below 1000 nM; that for `CNCc1cc2c(cc1-c1ccc([C@@H](C)NC(=O)c3ccc(=O)n(-c4ccccc4F)n3)s1)CC2` [Example 266, 1-(2-fluorophenyl)-N-[(1R)-1-[5-[4-(methylaminomethyl)-3-bicyclo [4.2.0]octa-1,3,5-trienyl]-2-thienyl]ethyl]-6-oxo-pyridazine-3-carboxamide], below 1000 nM; that for `C[C@@H](NC(=O)c1ccc(=O)n(-c2ccccc2F)n1)c1cc(N)cc(C(F)F)c1` [Example 375, N-[(1R)-1-[3-amino-5-(difluoromethyl)phenyl]ethyl]-1-(2-fluorophenyl)-6-oxo-pyridazine-3-carboxamide], below 1000 nM.
As for `CNCc1ccc(F)cc1-c1ccc([C@@H](C)NC(=O)c2ccc(=O)n(-c3ccccc3F)c2)s1` [Example 287, N-[(1R)-1-[5-[5-fluoro-2-(methylaminomethyl)phenyl]-2-thienyl]ethyl]-1-(2-fluorophenyl)-6-oxo-pyridine-3-carboxamide], the IC50 is below 1000 nM.
The compound `C[C@@H](NC(=O)c1ccc(=O)n(-c2cccc(C(=O)N3CCOCC3)c2)n1)c1cc(N)cc(C(F)(F)F)c1` [Example 254, N-[(1R)-1-[3-amino-5-(trifluoromethyl)phenyl]ethyl]-1-[3-(morpholine-4-carbonyl)phenyl]-6-oxo-pyridazine-3-carboxamide] yielded an IC50 below 1000 nM.
The compound `C[C@@H](NC(=O)c1nn(-c2ccccc2F)c(=O)cc1O)c1cccc(C(F)(F)CO)c1F` [Example 365, N-[(1R)-1-[3-(1,1-difluoro-2-hydroxy-ethyl)-2-fluoro-phenyl]ethyl]-1-(2-fluorophenyl)-4-hydroxy-6-oxo-pyridazine-3-carboxamide] gave an IC50 above 10000 nM.
`C[C@@H](NC(=O)c1ccc(=O)n(-c2ccc(OC(F)F)cc2)n1)c1cccc(C(F)(F)CO)c1F` [Example 195, N-[(1R)-1-[3-(1,1-difluoro-2-hydroxy-ethyl)-2-fluoro-phenyl]ethyl]-1-[4-(difluoromethoxy)phenyl]-6-oxo-pyridazine-3-carboxamide] showed an IC50 below 1000 nM.
Regarding `C[C@@H](NC(=O)c1ccc(=O)n(-c2ccc(F)cc2F)n1)c1cccc(C(F)(F)CO)c1F` [Example 352, N-[(1R)-1-[3-(1,1-difluoro-2-hydroxy-ethyl)-2-fluoro-phenyl]ethyl]-1-(2,4-difluorophenyl)-6-oxo-pyridazine-3-carboxamide], the half-maximal inhibitory concentration (IC50) is below 1000 nM.
`CNCc1ccc(Cl)cc1-c1ccc([C@@H](C)NC(=O)c2ccc(=O)n(-c3cnn(C)c3)n2)s1` [Example 292, (R)-N-(1-(5-(5-chloro-2-((methylamino)methyl)phenyl)thiophen-2-yl)ethyl)-1-(1-methyl-1H-pyrazol-4-yl)-6-oxo-1,6-dihydropyridazine-3-carboxamide] registered an IC50 below 1000 nM.
For `CNCC(F)(F)c1cccc([C@@H](C)NC(=O)c2ccc(=O)n(-c3ccccc3F)n2)c1F` [Example 256, N-[(1R)-1-[3-[1,1-difluoro-2-(methylamino)ethyl]-2-fluorophenyl]ethyl]-1-(2-fluorophenyl)-6-oxo-pyridazine-3-carboxamide], the IC50 was below 1000 nM.
In the case of `CNCc1c(F)cccc1-c1ccc([C@@H](C)NC(=O)c2ccc(=O)n(-c3cccnc3F)n2)s1` [Example 409], the IC50 is below 1000 nM.

Source of the values: patent EP4667458A1 (Kanaph Therapeutics Inc., priority 2023, dated 2024).
